Measurements as given in paper PMC11129182, “Development of Inhibitors, Probes, and PROTAC Provides a Complete Toolbox to Study PARK7 in the Living Cell” (Journal of Medicinal Chemistry, 2024).

Target: T1, PARK7 (Homo sapiens, UniProt Q99497)
T1 sequence (Q99497 1-189): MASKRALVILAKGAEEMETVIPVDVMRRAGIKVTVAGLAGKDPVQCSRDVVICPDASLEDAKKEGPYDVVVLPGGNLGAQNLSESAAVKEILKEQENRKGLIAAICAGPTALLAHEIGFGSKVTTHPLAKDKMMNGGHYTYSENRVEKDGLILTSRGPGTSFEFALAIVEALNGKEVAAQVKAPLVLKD
Assay: High-throughput screen of the crude compound library, PARK7 fluorescence polarization (FP) assay with FP reagent JYQ-107
Assay type: biochemical
Settings: 1.25 µM, crude compound library, FP reagent JYQ-107; read-out: HTS FP assay %Inhibition (1.25 µM)
From the text: Therefore, taking JYQ-88 as a starting point, we conducted an optimization to further improve the molecule in terms of inhibitory potency, specificity, and cellular uptake. […] First, a small tailored library was designed and synthesized to investigate whether the introduction of larger, hydrophilic substituents on JYQ-88 would enhance the interaction with the PARK7 pocket. […] The second approach involved the generation of a compound library containing diverse substituents at the azidomethyl position. […] We next performed a high-throughput screen of this crude compound library using our in-house developed PARK7 fluorescence polarization (FP) assay.[15]

Row | Structure (SMILES) | inhibition at 1.25 µM
1 | N#CN1CC[C@@H](C(=O)Nc2nc3c(s2)CN(C(=O)c2cccc(B(O)O)c2)CC3)C1 [compound 444] | 68.5%
2 | N#CN1CC[C@@H](C(=O)Nc2nc3c(s2)CN(C(=O)c2cc(C4CCC4)on2)CC3)C1 [compound 374] | 84%
3 | COc1ccc(C)cc1C(=O)N1CCc2nc(NC(=O)[C@@H]3CCN(C#N)C3)sc2C1 [compound 395] | 84.8%
4 | CC(=O)NCC(=O)N1CCc2nc(NC(=O)[C@@H]3CCN(C#N)C3)sc2C1 [compound 389] | 71.7%
5 | CC(C)(C)OC(=O)NCC(=O)N1CCc2nc(NC(=O)[C@@H]3CCN(C#N)C3)sc2C1 [compound 408] | 75.4%
6 | N#CN1CC[C@@H](C(=O)Nc2nc3c(s2)CN(C(=O)Cc2ccccc2[N+](=O)[O-])CC3)C1 [compound 400] | 80.8%
7 | N#CN1CC[C@@H](C(=O)Nc2nc3c(s2)CN(C(=O)c2nccc4ccccc24)CC3)C1 [compound 417] | 82.2%
8 | N#CN1CC[C@@H](C(=O)Nc2nc3c(s2)CN(C(=O)c2ccc(NNC(=O)OCC4c5ccccc5-c5ccccc54)cc2)CC3)C1 [compound 422] | 78.9%
9 | CSCCC(NC(C)=O)C(=O)N1CCc2nc(NC(=O)[C@@H]3CCN(C#N)C3)sc2C1 (stereo partly shown) [compound 388] | -53.2%
10 | N#CN1CC[C@@H](C(=O)Nc2nc3c(s2)CN(C(=O)CCc2ccccc2Br)CC3)C1 [compound 430] | 87.5%
11 | CC(C)(C)OC(=O)N1CC[C@H](C(=O)N2CCc3nc(NC(=O)[C@@H]4CCN(C#N)C4)sc3C2)C1 [compound 454] | 73.8%
12 | Cc1n[nH]c(C)c1Cc1ccc(C(=O)N2CCc3nc(NC(=O)[C@@H]4CCN(C#N)C4)sc3C2)o1 [compound 363] | 78.9%
13 | N#CN1CC[C@@H](C(=O)Nc2nc3c(s2)CN(C(=O)C2CC(=O)NC(=O)N2)CC3)C1 (stereo partly shown) [compound 462] | 60.1%

Same assay, conditions: 1.25 µM, crude compound library; read-out: HTS FP assay %Inhibition (1.25 µM)

Row | Structure (SMILES) | inhibition at 1.25 µM
14 | N#CN1CC[C@@H](C(=O)Nc2nc3c(s2)CN(C(=O)c2cccn2-c2c(Cl)cccc2Cl)CC3)C1 [compound 218] | 69.2%
15 | N#CN1CC[C@@H](C(=O)Nc2nc3c(s2)CN(C(=O)c2cnoc2-c2cccs2)CC3)C1 [compound 20] | 73%
16 | N#CN1CC[C@@H](C(=O)Nc2nc3c(s2)CN(C(=O)c2ccccc2Cn2cncn2)CC3)C1 [compound 302] | 66.3%
17 | N#CN1CC[C@@H](C(=O)Nc2nc3c(s2)CN(C(=O)c2c[nH]nc2-c2cccnc2)CC3)C1 [compound 56] | 67.6%
18 | Cc1n[nH]c(C)c1S(=O)(=O)N1CCC(C(=O)N2CCc3nc(NC(=O)[C@@H]4CCN(C#N)C4)sc3C2)CC1 [compound 120] | 46.4%
19 | N#CN1CC[C@@H](C(=O)Nc2nc3c(s2)CN(C(=O)c2cccc(Cn4cncn4)c2)CC3)C1 [compound 278] | 80.6%
20 | Cc1nc(-c2ccsc2)ccc1C(=O)N1CCc2nc(NC(=O)[C@@H]3CCN(C#N)C3)sc2C1 [compound 296] | 73.2%
21 | Cc1oc(-c2ccco2)nc1CC(=O)N1CCc2nc(NC(=O)[C@@H]3CCN(C#N)C3)sc2C1 [compound 44] | 71.6%
22 | N#CN1CC[C@@H](C(=O)Nc2nc3c(s2)CN(C(=O)c2cnn(Cn4cc(Cl)cn4)c2)CC3)C1 [compound 237] | 80%
23 | N#CN1CC[C@@H](C(=O)Nc2nc3c(s2)CN(C(=O)C2CCN(C(=O)c4ccc(Cl)s4)CC2)CC3)C1 [compound 267] | 75.5%
24 | N#CN1CC[C@@H](C(=O)Nc2nc3c(s2)CN(C(=O)c2ccccc2OCc2ccncc2)CC3)C1 [compound 45] | 68.7%
25 | N#CN1CC[C@@H](C(=O)Nc2nc3c(s2)CN(C(=O)C2(CC(=O)N4CCOCC4)CCCC2)CC3)C1 [compound 249] | 73.8%
26 | Cc1nn(-c2ccccn2)c(C)c1CC(=O)N1CCc2nc(NC(=O)[C@@H]3CCN(C#N)C3)sc2C1 [compound 231] | 67.1%
27 | N#CN1CC[C@@H](C(=O)Nc2nc3c(s2)CN(C(=O)Cc2csc(N4CCCC4=O)n2)CC3)C1 [compound 306] | 76%
28 | CN(CC(=O)N1CCCC(C(=O)N2CCc3nc(NC(=O)[C@@H]4CCN(C#N)C4)sc3C2)C1)c1ccc(Cl)cn1 (stereo partly shown) [compound 157] | 83.5%
29 | CCn1cc([C@@H]2OCCC[C@H]2C(=O)N2CCc3nc(NC(=O)[C@@H]4CCN(C#N)C4)sc3C2)cn1 [compound 318] | 65.8%
30 | N#CN1CC[C@@H](C(=O)Nc2nc3c(s2)CN(C(=O)c2ccc(N4CCCC4)c(F)c2)CC3)C1 [compound 211] | 86.4%
31 | Cc1cnn(-c2c(C(=O)N3CCc4nc(NC(=O)[C@@H]5CCN(C#N)C5)sc4C3)c(C)nn2C)c1 [compound 26] | 61.4%

Row | Structure (SMILES) | inhibition at 1.25 µM
32 | N#CN1CC[C@@H](C(=O)Nc2nc3c(s2)CN(C(=O)c2snnc2-c2ccc(Br)cc2)CC3)C1 [compound 42] | 69.7%
33 | N#CN1CC[C@@H](C(=O)Nc2nc3c(s2)CN(C(=O)c2cnc(Cc4ccc(F)cc4)s2)CC3)C1 [compound 298] | 79.5%
34 | N#CN1CC[C@@H](C(=O)Nc2nc3c(s2)CN(C(=O)Cc2ccn(-c4ccccc4)n2)CC3)C1 [compound 162] | 82.9%
35 | N#CN1CC[C@@H](C(=O)Nc2nc3c(s2)CN(C(=O)c2csc(-c4cnc[nH]4)n2)CC3)C1 [compound 154] | 77.3%
36 | N#CN1CC[C@@H](C(=O)Nc2nc3c(s2)CN(C(=O)c2cncc(N4CCCC4)n2)CC3)C1 [compound 182] | 81.9%
37 | N#CN1CC[C@@H](C(=O)Nc2nc3c(s2)CN(C(=O)[C@@H]2CCO[C@H]2c2ccccc2)CC3)C1 [compound 39] | 63.3%
38 | Cc1sc(-n2cnnn2)c(C(=O)N2CCc3nc(NC(=O)[C@@H]4CCN(C#N)C4)sc3C2)c1C [compound 243] | 61.9%
39 | Cc1csc(N2CCCC(C(=O)N3CCc4nc(NC(=O)[C@@H]5CCN(C#N)C5)sc4C3)C2)n1 (stereo partly shown) [compound 142] | 85.9%
40 | N#CN1CC[C@@H](C(=O)Nc2nc3c(s2)CN(C(=O)C2CCCN2C(=O)C2CC2)CC3)C1 (stereo partly shown) [compound 322] | 67.1%
41 | Cc1cc(COc2ccc(C(=O)N3CCc4nc(NC(=O)[C@@H]5CCN(C#N)C5)sc4C3)cc2Br)no1 [compound 173] | 72.5%
42 | N#CN1CC[C@@H](C(=O)Nc2nc3c(s2)CN(C(=O)c2cccc(S(=O)(=O)Nc4ccc(Cl)cc4)c2)CC3)C1 [compound 50] | 86.7%
43 | N#CN1CC[C@@H](C(=O)Nc2nc3c(s2)CN(C(=O)c2ccc(Oc4cccc(Cl)c4Cl)nn2)CC3)C1 [compound 60] | 69.8%
44 | N#CN1CC[C@@H](C(=O)Nc2nc3c(s2)CN(C(=O)C2CC(=O)N(CCOc4ccccc4Cl)C2)CC3)C1 (stereo partly shown) [compound 101] | 79.1%
45 | N#CN1CC[C@@H](C(=O)Nc2nc3c(s2)CN(C(=O)c2cc(-c4ccncc4)on2)CC3)C1 [compound 210] | 63.9%
46 | Cc1c(S(=O)(=O)N2CCC(C(=O)N3CCc4nc(NC(=O)[C@@H]5CCN(C#N)C5)sc4C3)CC2)cnn1C [compound 86] | 70.5%
47 | N#CN1CC[C@@H](C(=O)Nc2nc3c(s2)CN(C(=O)Cc2coc(-c4cccs4)n2)CC3)C1 [compound 341] | 87%
48 | N#CN1CC[C@@H](C(=O)Nc2nc3c(s2)CN(C(=O)c2ccc(C#Cc4ccccc4)cc2)CC3)C1 [compound 319] | 75.9%

Same assay, conditions: read-out: HTS FP assay %Inhibition (1.25 µM)

Row | Structure (SMILES) | inhibition at 1.25 µM
49 | N#CN1CC[C@@H](C(=O)Nc2nc3c(s2)CNCC3)C1 [amine] | 39.9%
